Measured values reported in article PMC9182086, “Identification of New Non-BBB Permeable Tryptophan Hydroxylase Inhibitors for Treating Obesity and Fatty Liver Disease” (Molecules, 2022).

Key:
[1] = Pharmacokinetic study in rats (iv and oral); format: in vivo, male SD rats; conditions: SD, rat, plasma, 5 mg/kg
Procedure: The pharmacokinetic study of 18i was performed using eight-week-old male SD rats (Orient Bio Inc., Seongnam, Korea). 18i and its prodrug 21 (5 mg/kg, 2 mL/kg) were administered via intravenous and oral routes. Blood samples were collected at 0.033, 0.16, 0.5, 1, 2, 4, 6, 8, and 24 h for intravenous injection at 0.15, 0.5, 1, 2, 4, 6, 8, and 24 h for oral dosing after drug administration, and then immediately centrifuged at 10,000× g for 3 min. The plasma concentrations of 18i were determined by LC-MS/MS. The plasma concentration-time profiles and pharmacokientic parameters were analyzed by a non-compartmental method using the nonlinear least-squares regression program WinNonlin 5.3 (Pharsight, Mountain View, CA, USA).
The LC-MS/MS analysis was performed on an Agilent 1200 series (Agilent Technologies, Santa Clara, CA, USA) with an API 4000 linear ion trap triple quadruple mass spectrometer (AB Sciex, CA, USA). The chromatographic separation of the drug was carried out using a kinetex column (100 × 2.1 mm, 3 μm, Phenomenex, CA USA) with a SecurityGuard C18 guard column (4 mm × 2.0 mm i.d., Phenomenex). The flow rate was 300 µL/min with a mobile phase consisting of 0.1% formic acid in water (eluent A) and 0.1% formic acid in acetonitrile (eluent B) by linear gradient condition as follows: starting with 0 to 0.3 min, B: 5%; 0.3 to 2.5 min, B: 5 → 95%; 2.5 to 2.9 min, B: 95%; 2.9 to 3.0 min, B: 95 → 5%, and then re-equilibrated to initial conditions until 3 min. The total run time was 6 min and the injection volume of 5 μL.

HFD-fed C57BL/6J mice = experiment: In vivo efficacy test in high-fat diet fed mice; design: species or system mouse; conditions: vs vehicle
Procedure: All animal study protocols were approved by the Institutional Animal Care and Use Committee at the Korea Advanced Institute of Science and Technology. Male C57BL/6J mice were purchased from SLC (Shizuoka, Japan) and acclimatized for a week. Mice were housed in a humidity and temperature-controlled environment under a 12 h light-dark cycle with ad libitum access to water and food. After acclimatization, male mice were fed a high-fat diet (HFD, 60% fat calories, Research diet; New Brunswick, NJ) and received daily treatment with TPH1 inhibitors. […] Compound 18i was dissolved in 5% dimethyl sulfoxide (DMSO) (Sigma, St. Louis, MO, USA) and 25% β-cyclodextrin (Sigma, St. Louis, MO, USA). Vehicle or compound 18i (100 mg kg^−1) was injected intraperitoneally in mice for 10 days after two weeks of HFD feeding. Both compounds 19 and 21 were prepared in 10% DMSO and 10% Kolliphor EL (Sigma, St. Louis, MO, USA). Vehicle and 100 mg kg^−1 of compound 19 or compound 21 were administered daily by intraperitoneal injection or oral feeding, respectively, concomitant to the initiation of HFD feeding. For analyzing blood glucose concentration, glucose in blood collected from the tail vein was measured after fasting mice for 16 h using a Gluco Dr. Top glucometer (Allemedicus, Anyang, Korea). Body weight was measured daily and mice were sacrificed for harvesting adipose tissue and liver.
Tissue samples were fixed in 10% formalin, embedded in paraffin, and cut into 5 μm thick sections, followed by deparaffinization and rehydration for H&E staining and UCP1 immunohistochemistry. After heat-induced antigen retrieval with a citrate buffer (pH 6.0) for 10 min at 95°C, tissue sections were incubated with BLOXALL Blocking solution (Vector Laboratories, Burlingame, CA, USA) to block endogenous peroxidase, followed by incubation with 2% normal goat serum in phosphate-buffered saline (PBS) for 30 min at room temperature to block nonspecific binding. Sections were incubated overnight with the anti-UCP1 primary antibody diluted 1:200 in 2% normal goat serum in PBS (Abcam, Cambridge, UK) at 4 °C, followed by 30 min incubation with biotinylated anti-rabbit IgG secondary antibody diluted 1:400 in PBS for 30 min at room temperature. After incubation with Vectastain […] reagent (Vector Laboratories) for 30 min, peroxidase activity was visualized with 3,3′-diaminobenzidine substrates (Vector Laboratories). For measuring average adipocyte size, we analyzed three random fields of H&E stained micrographs per adipose tissue sample from two representative mice of each group using AdipoCount software.
Fresh liver tissues were flash frozen in O.C.T. compound (Sakura Finetek, Torrance, CA, USA) and 10 μm cryostat sections were collected on glass slides. Sections were allowed to air-dry for 1 h, rinsed with PBS for 5 min, and washed with distilled water for 5 min. After washing, sections were placed in 30% isopropanol for 5 min, 60% isopropanol for 5 min twice, and then stained in Oil Red O solution (0.5% Oil red O (Sigma, St. Louis, MO, USA) dissolved in 60% isopropanol) for 15 min. The stained sections were rinsed twice with distilled water, mounted, coverslipped, and documented using bright field microscopy.

Cc1ccn(-c2cc(Cl)ccc2[C@@H](Oc2ncnc3c(-c4ccc(C[C@H](N)C(=O)O)cc4)csc23)C(F)(F)F)n1.Cl [Compound 18i, (S)-2-amino-3-(4-(4-((R)-1-(4-chloro-2-(3-methyl-1H-pyrazol-1-yl)phenyl)-2,2,2-trifluoroethoxy)thieno[3,2-d]pyrimidin-7-yl)phenyl)propanoic acid hydrochloride]
AUC(0-inf) ([1]; male rats, iv, 5 mpk): 1220 ng·h/mL
AUC(0-t) ([1]; male rats, iv, 5 mpk): 1210 ng·h/mL
clearance ([1]; male rats, iv, 5 mpk): 68.2 mL/min/kg
half-life ([1]; male rats, iv, 5 mpk): 1.85 h
Vd ([1]; male rats, iv, 5 mpk, read-out: Vss): 2.16 L/kg
AUC ([1]; male, intravenous, rats, read-out: AUC (text, kind not stated)): 1200 ng·h/mL
Body weight gain (HFD-fed C57BL/6J mice; 100 mg/kg ip daily for 10 days after two weeks of HFD): blunted weight gain
eWAT and BAT adipocyte size (histology) (HFD-fed C57BL/6J mice; 100 mg/kg ip daily for 10 days): significant reduction
Fasting blood glucose levels (HFD-fed C57BL/6J mice; 16 h fasting): lower fasting blood glucose levels
